Where “and” joins values, the source holds several entries; their conditions need not be identical. Equal values may be shown once. Read-outs that look alike come from different tables or passages of the source.
How the values were obtained:
PBRM1 = target: T1, PBRM1 (Homo sapiens, UniProt Q86U86); assay: Western blot of PBRM1 degradation in NCI-H1568 cells; type: cell-based; conditions: SuppFig3b, per replicate
T1 construct: endogenous in cells; host or cells: NCI-H1568
Description: Cells were seeded into 6-well plates 24 h before treatment. Next day, several wells were treated with compounds or DMSO as indicated, washed with PBS and lysed with lysis buffer (1% Triton X-100, 150 mM NaCl, 1 mM EDTA, 50 mM Tris pH 7.4, protease inhibitor cocktail (Roche), 50 units/mL benzonase nuclease (Sigma)). Lysates were cleared by centrifugation at 4 °C, at 15,800 × g for 10 min and the supernatants stored at −20 °C. Protein concentration was determined by BCA assay (Pierce) and the absorbance at 562 nm measured by spectrophotometry (NanoDrop ND1000). […] Western blot images were obtained through detection of SMARCA2 (Sigma #HPA029981 RRID:AB_10602406 1:1000), SMARCA4 (Abcam #ab108318 clone EPR3912 RRID:AB_10889900 1:1000), PBRM1 (Bethyl Laboratories #A301-591A RRID:AB_1078808 1:1000), β-actin (Cell Signalling #4970 clone 13E5 RRID:AB_2223172 1:2500) and GAPDH (Abcam #ab9485 RRID:AB_307275 1:2500) antibodies with IRDye 800CW donkey anti-rabbit secondary antibody (LI-COR #926-32213 RRID:AB_621848 1:10000) using a ChemiDoc MP imaging system (Bio-Rad). Western blots were quantified using Image Studio Lite (Licor, version 5.2) with normalisation to loading control and DMSO and further analysed using GraphPad Prism (version 9.2.0).

[1] = Pharmacokinetic analyses in mouse; type: in vivo; conditions: for AUC(0-t): read-out: AUC0-24h; for Vd: read-out: Vss
Description: Compound concentrations in plasma aliquots were measured by quantitative HPLC-MS/MS using an internal standard. Calibration and quality control samples were prepared using blank plasma from untreated animals. Samples were precipitated with acetonitrile and injected into a HPLC system (Agilent 1200). Separation was performed by gradients of 5 mmol/L ammonium acetate pH 4.0 and acetonitrile with 0.1% formic acid on a 2.1 mm by 50 mm XBridge BEH C18 reversed-phase column with 2.5 µm particles (Waters). The HPLC was interfaced by ESI operated in positive ionisation mode to a triple quadrupole mass spectrometer (5000 or 6500+ Triple Quad System, SCIEX) operated in multiple reaction monitoring mode. Transitions were 532.4 to 432.8 m/z for BI01810284, 525.6 to 425.7 m/z for BI01802983 and 1021.6 to 624.2 m/z for BI01580883. Chromatograms were analyzed with Analyst (SCIEX) and pharmacokinetic parameters were calculated by non-compartmental analysis using BI-proprietary software.

[2] = 5 mg/kg i.v., individual animals
[3] = 30 mg/kg p.o., individual animals
[4] = NMRI, mouse, plasma, iv, 5 mg/kg, NMRI mice, i.v., 5 mg/kg, PK study
[5] = mouse, 5 mg/kg i.v., NCA, individual animals, 5 mg/kg
[6] = mouse, 30 mg/kg p.o., NCA, individual animals, 30 mg/kg

T1 sequence (Q86U86 whole entry): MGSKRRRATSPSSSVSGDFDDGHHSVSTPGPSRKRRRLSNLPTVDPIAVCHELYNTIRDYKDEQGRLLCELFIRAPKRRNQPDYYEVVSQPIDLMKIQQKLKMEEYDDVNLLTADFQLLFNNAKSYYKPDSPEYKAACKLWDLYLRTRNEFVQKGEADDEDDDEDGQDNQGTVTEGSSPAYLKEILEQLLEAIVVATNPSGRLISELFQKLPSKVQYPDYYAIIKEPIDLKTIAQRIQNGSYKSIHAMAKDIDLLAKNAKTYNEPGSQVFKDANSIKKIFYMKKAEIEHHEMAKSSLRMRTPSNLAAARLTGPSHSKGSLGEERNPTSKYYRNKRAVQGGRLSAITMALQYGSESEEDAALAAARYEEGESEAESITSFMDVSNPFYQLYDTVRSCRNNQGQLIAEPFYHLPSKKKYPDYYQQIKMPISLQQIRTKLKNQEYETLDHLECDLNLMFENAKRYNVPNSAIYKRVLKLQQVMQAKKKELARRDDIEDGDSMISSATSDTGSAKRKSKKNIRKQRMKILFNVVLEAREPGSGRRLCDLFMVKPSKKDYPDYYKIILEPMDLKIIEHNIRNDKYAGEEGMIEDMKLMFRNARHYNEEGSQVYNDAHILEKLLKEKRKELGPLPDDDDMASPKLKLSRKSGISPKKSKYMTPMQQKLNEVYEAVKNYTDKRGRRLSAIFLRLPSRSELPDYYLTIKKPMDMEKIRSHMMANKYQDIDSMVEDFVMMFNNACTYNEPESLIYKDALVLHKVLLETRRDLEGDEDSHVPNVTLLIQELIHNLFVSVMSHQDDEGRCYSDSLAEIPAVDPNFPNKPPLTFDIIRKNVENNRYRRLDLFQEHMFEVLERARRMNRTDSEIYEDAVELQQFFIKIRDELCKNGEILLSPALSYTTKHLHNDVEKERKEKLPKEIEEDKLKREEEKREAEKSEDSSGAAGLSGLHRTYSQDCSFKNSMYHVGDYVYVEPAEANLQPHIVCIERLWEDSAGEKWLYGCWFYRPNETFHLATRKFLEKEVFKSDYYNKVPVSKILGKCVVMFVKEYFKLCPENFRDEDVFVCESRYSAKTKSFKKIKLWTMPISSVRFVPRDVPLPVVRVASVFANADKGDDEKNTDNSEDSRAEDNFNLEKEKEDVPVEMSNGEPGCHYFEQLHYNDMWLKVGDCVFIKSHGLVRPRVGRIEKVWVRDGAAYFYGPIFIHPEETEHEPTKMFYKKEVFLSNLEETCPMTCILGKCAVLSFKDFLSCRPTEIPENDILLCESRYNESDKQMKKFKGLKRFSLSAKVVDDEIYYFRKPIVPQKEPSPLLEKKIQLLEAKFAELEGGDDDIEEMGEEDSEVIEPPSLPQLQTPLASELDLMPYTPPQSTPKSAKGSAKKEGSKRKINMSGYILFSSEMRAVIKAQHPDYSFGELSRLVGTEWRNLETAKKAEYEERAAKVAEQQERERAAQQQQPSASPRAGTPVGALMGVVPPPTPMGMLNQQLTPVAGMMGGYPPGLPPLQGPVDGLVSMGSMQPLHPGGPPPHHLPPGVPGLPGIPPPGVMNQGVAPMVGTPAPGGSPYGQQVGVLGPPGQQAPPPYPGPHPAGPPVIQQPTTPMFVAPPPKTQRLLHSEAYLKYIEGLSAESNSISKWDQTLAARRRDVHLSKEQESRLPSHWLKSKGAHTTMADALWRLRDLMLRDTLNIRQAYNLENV

Cc1ncsc1-c1ccc(C(CCC(C)CCN2CCC(c3ccc4c(c3)n(C3CCCC3)c3nc(=O)c5c(Br)cccc5n43)CC2)NC(=O)C2CC(O)CN2C(=O)C(NC(=O)C2(F)CC2)C(C)(C)C)cc1 (centres unmarked) [ACBI2]
PBRM1 degradation, % DMSO (PBRM1; 1 nM): 23.1362 % DMSO and 79.6814 % DMSO and 32.6932 % DMSO
PBRM1 degradation, % DMSO (PBRM1; 10 nM): 3.304 % DMSO and 17.3996 % DMSO and 0.6905 % DMSO
PBRM1 degradation, % DMSO (PBRM1; 100 nM): 2.804 % DMSO and 11.7415 % DMSO and 30.9172 % DMSO
PBRM1 degradation, % DMSO (PBRM1; 1000 nM): 14.3896 % DMSO and 34.4025 % DMSO and 4.024 % DMSO
AUC [1, 2]: 41.8 µM·h and 38 µM·h
AUCinf [1, 2]: 42.3 µM·h and 38.4 µM·h
Concentration ([1]; 5 mg/kg i.v., time 0.25 h, individual animals): 6800 nM
Concentration ([1]; 5 mg/kg i.v., time 1 h, individual animals): 5130 nM
Concentration ([1]; 5 mg/kg i.v., time 6 h, individual animals): 1220 nM
Concentration ([1]; 5 mg/kg i.v., time 24 h, individual animals): 94.9 nM
F ([1]; 30 mg/kg p.o. vs 5 mg/kg i.v., individual animals): 23.8% and 20.9%
AUC [1, 3]: 53.9 µM·h and 47.2 µM·h
AUCinf [1, 3]: 55 µM·h and 48.3 µM·h
MRT ([1]; NMRI, mouse, plasma, iv, 5 mg/kg, NMRI mice, PK study): 3.8 h
AUC(0-t) [1, 4]: 38 µM·h
AUC(0-inf) ([1]; NMRI, mouse, plasma, iv, 5 mg/kg, NMRI mice, i.v., 5 mg/kg, PK study, read-out: AUC0-inf): 38 µM·h
clearance ([1]; NMRI, mouse, plasma, iv, 5 mg/kg, NMRI mice, i.v., 5 mg/kg, PK study, read-out: Clearance): 2 mL/min/kg
Vd [1, 4]: 0.47 L/kg
MRT ([1]; NMRI, mouse, plasma, po, 30 mg/kg, NMRI mice, PK study): 6.1 h
AUC(0-t) ([1]; NMRI, mouse, plasma, po, 30 mg/kg, NMRI mice, p.o., 30 mg/kg, PK study): 50 µM·h
AUC(0-inf) ([1]; NMRI, mouse, plasma, po, 30 mg/kg, NMRI mice, p.o., 30 mg/kg, PK study, read-out: AUC0-inf): 51 µM·h
bioavailability ([1]; NMRI, mouse, plasma, po, 30 mg/kg, NMRI mice, p.o., 30 mg/kg, PK study, read-out: Bioavailability): 22%
AUC(0-t) ([1]; NMRI, mouse, plasma, po, 80 mg/kg, NMRI mice, p.o., 80 mg/kg, Xenograft study): 84 µM·h
Plasma concentration ([1]; mouse, 5 mg/kg i.v., 0.25 h, individual animals, 5 mg/kg): 7530 nM and 7360 nM
Plasma concentration ([1]; mouse, 5 mg/kg i.v., 1 h, individual animals, 5 mg/kg): 6000 nM and 5660 nM
Plasma concentration ([1]; mouse, 5 mg/kg i.v., 6 h, individual animals, 5 mg/kg): 1620 nM and 1380 nM
Plasma concentration ([1]; mouse, 5 mg/kg i.v., 24 h, individual animals, 5 mg/kg): 85.5 nM and 74.3 nM
AUC [1, 5]: 41.8 µM·h and 38 µM·h
AUCinf [1, 5]: 42.3 µM·h and 38.4 µM·h
CL [1, 5]: 1.85 mL/min/kg and 2.04 mL/min/kg
Vss [1, 5]: 0.426 L/kg and 0.449 L/kg
Plasma concentration ([1]; mouse, 30 mg/kg p.o., 0.333 h, individual animals, 30 mg/kg): 968 nM and 1530 nM
Plasma concentration ([1]; mouse, 30 mg/kg p.o., 1 h, individual animals, 30 mg/kg): 4180 nM and 4160 nM
Plasma concentration ([1]; mouse, 30 mg/kg p.o., 2 h, individual animals, 30 mg/kg): 4460 nM and 4880 nM
Plasma concentration ([1]; mouse, 30 mg/kg p.o., 6 h, individual animals, 30 mg/kg): 3380 nM and 2650 nM
Plasma concentration ([1]; mouse, 30 mg/kg p.o., 24 h, individual animals, 30 mg/kg): 173 nM and 175 nM
AUC [1, 6]: 53.9 µM·h and 47.2 µM·h
AUCinf [1, 6]: 55 µM·h and 48.3 µM·h
F [1, 6]: 23.8% and 20.9%
concentration at 0.25 h ([1]; mouse, plasma, intravenous, 5 mg/kg, 5 mg/kg i.v., time 0.25 h, individual animals, read-out: Concentration): 7530 nM
concentration at 1 h ([1]; mouse, plasma, intravenous, 5 mg/kg, 5 mg/kg i.v., time 1 h, individual animals, read-out: Concentration): 6000 nM
concentration at 6 h ([1]; mouse, plasma, intravenous, 5 mg/kg, 5 mg/kg i.v., time 6 h, individual animals, read-out: Concentration): 1620 nM
concentration at 24 h ([1]; mouse, plasma, intravenous, 5 mg/kg, 5 mg/kg i.v., time 24 h, individual animals, read-out: Concentration): 85.5 nM
AUC ([1]; mouse, plasma, iv, 5 mg/kg, 5 mg/kg i.v., individual animals, read-out: AUC): 34.2 µM·h
AUC(0-inf) ([1]; mouse, plasma, iv, 5 mg/kg, 5 mg/kg i.v., individual animals, read-out: AUCinf): 34.7 µM·h
concentration at 0.25 h ([1]; mouse, plasma, iv, 5 mg/kg, mouse, 5 mg/kg i.v., 0.25 h, individual animals, read-out: Plasma concentration): 6800 nM
concentration at 1 h ([1]; mouse, plasma, iv, 5 mg/kg, mouse, 5 mg/kg i.v., 1 h, individual animals, read-out: Plasma concentration): 5130 nM
concentration at 6 h ([1]; mouse, plasma, iv, 5 mg/kg, mouse, 5 mg/kg i.v., 6 h, individual animals, read-out: Plasma concentration): 1220 nM
concentration at 24 h ([1]; mouse, plasma, iv, 5 mg/kg, mouse, 5 mg/kg i.v., 24 h, individual animals, read-out: Plasma concentration): 94.9 nM
AUC ([1]; mouse, plasma, iv, 5 mg/kg, mouse, 5 mg/kg i.v., NCA, individual animals, read-out: AUC): 34.2 µM·h
AUC(0-inf) ([1]; mouse, plasma, iv, 5 mg/kg, mouse, 5 mg/kg i.v., NCA, individual animals, read-out: AUCinf): 34.7 µM·h
clearance ([1]; mouse, plasma, iv, 5 mg/kg, mouse, 5 mg/kg i.v., NCA, individual animals, read-out: CL): 2.25 mL/min/kg
Vd ([1]; mouse, plasma, iv, 5 mg/kg, mouse, 5 mg/kg i.v., NCA, individual animals): 0.536 L/kg
clearance ([1]; mouse, plasma, iv, 5 mg/kg, mouse, 5 mg/kg i.v., read-out: clearance): 2.1 mL/min/kg
concentration at 0.333 h ([1]; mouse, plasma, oral, 30 mg/kg, 30 mg/kg p.o., time 0.333 h, individual animals, read-out: Concentration): 898 nM
concentration at 1 h ([1]; mouse, plasma, oral, 30 mg/kg, 30 mg/kg p.o., time 1 h, individual animals, read-out: Concentration): 4310 nM
concentration at 2 h ([1]; mouse, plasma, oral, 30 mg/kg, 30 mg/kg p.o., time 2 h, individual animals, read-out: Concentration): 4290 nM
concentration at 6 h ([1]; mouse, plasma, oral, 30 mg/kg, 30 mg/kg p.o., time 6 h, individual animals, read-out: Concentration): 2750 nM
concentration at 24 h ([1]; mouse, plasma, oral, 30 mg/kg, 30 mg/kg p.o., time 24 h, individual animals, read-out: Concentration): 265 nM
bioavailability ([1]; mouse, plasma, oral, 30 mg/kg, mouse, 30 mg/kg p.o. vs 5 mg/kg i.v., read-out: F% p.o. (oral bioavailability)): 22%
bioavailability ([1]; mouse, plasma, po, 30 mg/kg, 30 mg/kg p.o. vs 5 mg/kg i.v., individual animals, read-out: F): 21.5%
AUC ([1]; mouse, plasma, po, 30 mg/kg, 30 mg/kg p.o., individual animals, read-out: AUC): 47.5 µM·h
AUC(0-inf) ([1]; mouse, plasma, po, 30 mg/kg, 30 mg/kg p.o., individual animals, read-out: AUCinf): 49.5 µM·h
concentration at 0.333 h ([1]; mouse, plasma, po, 30 mg/kg, mouse, 30 mg/kg p.o., 0.333 h, individual animals, read-out: Plasma concentration): 898 nM
concentration at 1 h ([1]; mouse, plasma, po, 30 mg/kg, mouse, 30 mg/kg p.o., 1 h, individual animals, read-out: Plasma concentration): 4310 nM
concentration at 2 h ([1]; mouse, plasma, po, 30 mg/kg, mouse, 30 mg/kg p.o., 2 h, individual animals, read-out: Plasma concentration): 4290 nM
concentration at 6 h ([1]; mouse, plasma, po, 30 mg/kg, mouse, 30 mg/kg p.o., 6 h, individual animals, read-out: Plasma concentration): 2750 nM
concentration at 24 h ([1]; mouse, plasma, po, 30 mg/kg, mouse, 30 mg/kg p.o., 24 h, individual animals, read-out: Plasma concentration): 265 nM
AUC ([1]; mouse, plasma, po, 30 mg/kg, mouse, 30 mg/kg p.o., NCA, individual animals, read-out: AUC): 47.5 µM·h
AUC(0-inf) ([1]; mouse, plasma, po, 30 mg/kg, mouse, 30 mg/kg p.o., NCA, individual animals, read-out: AUCinf): 49.5 µM·h
bioavailability ([1]; mouse, plasma, po, 30 mg/kg, mouse, 30 mg/kg p.o., NCA, individual animals, read-out: F): 21.5%

From publication PMC9551036, “A selective and orally bioavailable VHL-recruiting PROTAC achieves SMARCA2 degradation in vivo” (Nature Communications, 2022)
